Structures are written as SMILES.

The assay addresses T1, human TLR9 (Homo sapiens, UniProt Q9NR96).
T1 sequence (Q9NR96 26-1032): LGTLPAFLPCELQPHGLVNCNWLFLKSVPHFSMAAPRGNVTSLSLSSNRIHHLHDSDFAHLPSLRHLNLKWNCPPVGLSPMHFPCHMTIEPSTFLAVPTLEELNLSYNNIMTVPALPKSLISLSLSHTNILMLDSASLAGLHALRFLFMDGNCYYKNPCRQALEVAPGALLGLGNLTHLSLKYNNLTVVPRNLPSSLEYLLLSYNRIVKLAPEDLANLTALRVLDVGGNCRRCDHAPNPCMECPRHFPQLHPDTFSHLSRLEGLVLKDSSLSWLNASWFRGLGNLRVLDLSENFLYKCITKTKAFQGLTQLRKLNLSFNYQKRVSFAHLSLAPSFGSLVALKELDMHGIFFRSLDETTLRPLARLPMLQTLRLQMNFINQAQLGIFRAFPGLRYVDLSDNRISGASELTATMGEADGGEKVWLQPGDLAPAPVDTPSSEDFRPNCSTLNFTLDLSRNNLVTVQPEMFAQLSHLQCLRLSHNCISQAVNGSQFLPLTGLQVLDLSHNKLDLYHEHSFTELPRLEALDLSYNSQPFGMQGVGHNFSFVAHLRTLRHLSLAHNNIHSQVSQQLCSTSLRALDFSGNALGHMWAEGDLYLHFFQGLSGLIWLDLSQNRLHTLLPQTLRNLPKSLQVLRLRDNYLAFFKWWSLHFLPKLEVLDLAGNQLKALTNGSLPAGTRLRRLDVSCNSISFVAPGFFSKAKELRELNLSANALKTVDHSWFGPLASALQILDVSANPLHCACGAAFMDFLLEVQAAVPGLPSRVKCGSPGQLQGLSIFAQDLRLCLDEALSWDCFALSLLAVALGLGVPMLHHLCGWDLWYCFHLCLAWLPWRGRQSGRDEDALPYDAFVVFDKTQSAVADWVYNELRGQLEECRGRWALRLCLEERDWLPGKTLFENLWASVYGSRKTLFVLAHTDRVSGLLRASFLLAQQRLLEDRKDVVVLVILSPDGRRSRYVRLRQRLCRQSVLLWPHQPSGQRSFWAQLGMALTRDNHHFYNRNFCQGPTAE
Put plainly: HEK293-Blue-hTLR-9 cells assay (SEAP reporter, ODN2006 stimulation). Format: cell-based. Particulars: HEK293-Blue-hTLR9 cells, ODN2006 ligand, 20 hrs incubation; read-out: HEK/hTLR9 IC50. As to the method:
The following tests were carried out in order to determine the activity of the compounds of formula (I) in HEK293-Blue-hTLR-7/8/9 cells assay.
A stable HEK293-Blue-hTLR-9 cell line was purchased from InvivoGen (Cat.#: hkb-htlr9, San Diego, California, USA). These cells were originally designed for studying the stimulation of human TLR9 by monitoring the activation of NF-κB. A SEAP (secreted embryonic alkaline phosphatase) reporter gene was placed under the control of the IFN-β minimal promoter fused to five NF-κB and. AP-1-binding sites. The SEAP was induced by activating NF-κB and AP-1 via stimulating HEK-Blue hTLR9 cells with TLR9 ligands. Therefore the reporter expression was declined by TLR9 antagonist under the stimulation of a ligand, such as ODN2006 (Cat.#: tlr1-2006-1, Invivogen, San Diego, California, USA), for incubation of 20 his. The cell culture supernatant SEAP reporter activity was determined using QUANTI-Blue™ kit (Cat.#: rep-qb1, Invivogen, San Diego, California, USA) at a wavelength of 640 nm, a detection medium that turns purple or blue in the presence of alkaline phosphatase.
HEK293-Blue-hTLR9 cells were incubated at a density of 250,000-450,000 cells/mL in a volume of 170 μL in a 96-well plate in Dulbecco's Modified Eagle's medium (DMEM) containing 4.5 g/L glucose, 50 U/mL penicillin, […], […], 2 mM L-glutamine, 10% (v/v) heat-inactivated fetal bovine serum with addition of 20 μL test compound in a serial dilution in the presence of final DMSO at 1% and 10 p L of 20uM ODN2006 in above DMEM, perform incubation under 37° C. in a CO2 incubator for 20 hrs. Then 20 μL of the supernatant from each well was incubated with 180 μL Quanti-blue substrate solution at 37° C. for 2 h and the absorbance was read at 620˜655 nm using a spectrophotometer. The signaling pathway that TLR9 activation leads to downstream NF-κB activation has been widely accepted, and therefore similar reporter assay was modified for evaluating TLR9 antagonist.
As to `C[C@@H]1CN(c2ccc(C#N)c3ncccc23)C[C@H](C)N1Cc1ccc(N2CCNCC2)cc1` [Example 1, 5-[(3R,5S)-3,5-Dimethyl-4-[(4-piperazin-1-ylphenyl)methyl]piperazin-1-yl]quinoline-8-carbonitrile], the IC50 amounted to 0.039 µM.

`C[C@@H]1CN(c2ccc(C#N)c3ncccc23)C[C@@H](C)N1Cc1ccc(N2CCNCC2)cc1` [Example 2]: the IC50 was determined as 0.065 µM.

`C[C@@H]1CN(c2ccc(C#N)c3ncccc23)C[C@H](C)N1Cc1ccc(N2CCNCC2)nc1` [Example 3, 5-[(3R,5S)-3,5-Dimethyl-4-[(6-piperazin-1-yl-3-pyridyl)methyl]piperazin-1-yl]quinoline-8-carbonitrile]: the IC50 stood at 0.093 µM.

In the case of `C[C@@H]1CN(c2ccc(C#N)c3ncccc23)C[C@H](C)N1Cc1ncc(N2CCNCC2)cn1` [Example 4, 5-[(3S,5R)-3,5-Dimethyl-4-[(5-piperazin-1-ylpyrimidin-2-yl)methyl]piperazin-1-yl]quinoline-8-carbonitrile], the IC50 was determined as 0.137 µM.

Consider `C[C@@H]1CN(c2ccc(C#N)c3ncccc23)C[C@H](C)N1Cc1ccc(N2CCNCC2)cn1` [Example 5, 5-[(3S,5R)-3,5-Dimethyl-4-[(5-piperazin-1-yl-2-pyridyl)methyl]piperazin-1-yl]quinoline-8-carbonitrile], for which the IC50 amounted to 0.084 µM.

As to `C[C@@H]1CN(c2ccc(C#N)c3ncccc23)C[C@H](C)N1Cc1ncc(N2CCN(C(=O)CN(C)C)CC2)cn1` [Example 6, 5-[(3S,5R)-4-[[5-[4-[2-(Dimethylamino)acetyl]piperazin-1-yl]pyrimidin-2-yl]methyl]-3,5-dimethyl-piperazin-1-yl]quinoline-8-carbonitrile], the IC50 was 0.139 µM.

For `C[C@@H]1CN(c2ccc(C#N)c3ncccc23)C[C@H](C)N1Cc1ccc(N2CCN(C)CC2)cn1` [Example 7, 5-[(3S,5R)-3,5-dimethyl-4-[[5-(4-methylpiperazin-1-yl)-2-pyridyl]methyl]piperazin-1-yl]quinoline-8-carbonitrile], the IC50 was determined as 0.12 µM.

In the case of `C[C@@H]1CN(c2ccc(C#N)c3ncccc23)C[C@H](C)N1Cc1ccc(N2CC3CNCC(C2)O3)cn1` [Example 8, 5-[(3S,5R)-3,5-Dimethyl-4-[[5-(9-oxa-3,7-diazabicyclo[3.3.1]nonan-3-yl)-2-pyridyl]methyl]piperazin-1-yl]quinoline-8-carbonitrile], the IC50 is 0.073 µM.

`C[C@@H]1CN(c2ccc(C#N)c3ncccc23)C[C@H](C)N1Cc1ccc(N[C@@H]2CNC[C@@H]2F)cn1` [Example 9, 5-[(3R,5S)-3,5-Dimethyl-4-[[5-[[(3R,4S)-4-fluoropyrrolidin-3-yl]amino]-2-pyridyl]methyl]piperazin-1-yl]quinoline-8-carbonitrile]: the IC50 came to 0.047 µM.

In the case of `C[C@@H]1CN(c2ccc(C#N)c3ncccc23)C[C@H](C)N1Cc1ccc(N2CCN(C(=O)C3CCCN3)CC2)cn1` (stereo partly drawn) [Example 10, 5-[(3R,5S)-3,5-Dimethyl-4-[[5-[4-(pyrrolidine-2-carbonyl)piperazin-1-yl]-2-pyridyl]methyl]piperazin-1-yl]quinoline-8-carbonitrile], the IC50 amounted to 0.041 µM.

`C[C@@H]1CN(c2ccc(C#N)c3ncccc23)C[C@H](C)N1Cc1ccc(N2CCN(C(=O)CN(C)C)CC2)cn1` [Example 11, 5-[(3S,5R)-4-[[5-[4-[2-(Dimethylamino)acetyl]piperazin-1-yl]-2-pyridyl]methyl]-3,5-dimethyl-piperazin-1-yl]quinoline-8-carbonitrile]: the IC50 is 0.096 µM.

`C[C@@H]1CN(c2ccc(C#N)c3ncccc23)C[C@H](C)N1Cc1ccc(N2CCNCC2CO)cc1` (stereo partly drawn) [Example 12, 5-[(3R,5S)-4-[[4-[2-(Hydroxymethyl)piperazin-1-yl]phenyl]methyl]-3,5-dimethyl-piperazin-1-yl]quinoline-8-carbonitrile]: the IC50 was determined as 0.06 µM.

`C[C@@H]1CN(c2ccc(C#N)c3ncccc23)C[C@H](C)N1CC(=O)N1CCc2nc(N3CCNCC3)ccc2C1` [Example 13, 5-[(3R,5S)-3,5-Dimethyl-4-[2-oxo-2-(2-piperazin-1-yl-7,8-dihydro-5H-1,6-naphthyridin-6-yl)ethyl]piperazin-1-yl]quinoline-8-carbonitrile]: the IC50 turned out to be 0.132 µM.

On to `C[C@@H]1CN(c2ccc(C#N)c3ncccc23)C[C@H](C)N1CC(=O)N1CCc2cc(N3CCNCC3)ccc2C1` [Example 14, 5-[(3R,5S)-3,5-Dimethyl-4-[2-oxo-2-(6-piperazin-1-yl-3,4-dihyrdo-1H-isoquinolin-2-yl)ethyl]piperazin-1-yl]quinoline-8-carbonitrile], for which the IC50 stood at 0.116 µM.

For `C[C@@H]1CN(c2ccc(C#N)c3ncccc23)C[C@H](C)N1CC(=O)N1CCc2ccc(N3CCNCC3)cc2C1` [Example 15, 5-[(3R,5S)-3,5-dimethyl-4-[2-pxp-2-(7-piperazin-1-yl-3,4-dihydro-1H-isoquinolin-2-yl)ethyl]piperazin-1-yl]quinoline-8-carbonitrile], the IC50 was determined as 0.094 µM.

As to `C[C@@H]1CN(c2ccc(C#N)c3ncccc23)C[C@H](C)N1CC(=O)N1Cc2ccc(N3CCNCC3)cc2C1` [Example 16, 5-[(3R,5S)-3,5-Dimethyl-4-[2-oxo-2-(5-piperazin-1-ylisoindolin-2-yl)ethyl]piperazin-1-yl]quinoline-8-carbonitrile], the IC50 is 0.075 µM.

On to `CC1CN(c2ccc(C#N)c3ncccc23)CCN1CC(=O)Nc1ccc(N2CCNCC2)cc1` (stereo not shown) [Example 17, 2-[4-(8-Cyano-5-quinolyl)-2-methyl-piperazin-1-yl]-N-(4-piperazin-1-ylpheny)acetamide], for which the IC50 was 0.103 µM.

As to `CC1CN(c2ccc(C#N)c3ncccc23)CCN1CC(=O)Nc1ccc2c(c1)CCNC2` (stereo not shown) [Example 18, 2-[4-(8-Cyano-5-quinolyl)-2-methyl-piperazin-1yl]-N-(1,2,3,4-tetrahydroisoquinolin-6-yl)acetamide], the IC50 was 0.119 µM.

As to `CC1CN(c2ccc(C#N)c3ncccc23)CCN1CC(=O)N1CCC(C2CCN(C)CC2)CC1` (stereo not shown) [Example 19, 5-[3-methyl-4-[2-[4-(1-methyl-4-piperidyl)-1-piperidyl]-2-oxo-ethyl]piperazin-1-yl]quinoline-8-carbonitrile], the IC50 was determined as 0.116 µM.

(Values after US11952363B2, “Piperazine compounds for the treatment of autoimmune disease” (Hoffmann-La Roche Inc., priority 2018, dated 2024).)
